# Source: the NIST ThermoML archive (doi:10.1021/acs.jced.5b00882)
# ± gives the expanded uncertainty stated by the source.
# Experiment: Molar enthalpy of transition or fusion
# Settings: Crystal; DSC
row,Molar enthalpy of transition or fusion,SMILES
1,3.05 ± 0.0932 kcal/mol,"CNC(=O)NC [1,3-dimethylurea]"

# Experiment: not given
# Settings: 298.15 K; 101.33 kPa; Liquid; Pycnometric method
row,mass density,SMILES
1,806 ± 1.5 kg/m3,CCCCO [butan-1-ol]
2,785.3 ± 1.5 kg/m3,CCO [ethanol]
3,819.2 ± 1.5 kg/m3,CCCCCCCO [heptan-1-ol]
4,815.7 ± 1.5 kg/m3,CCCCCCO [hexan-1-ol]
5,786.6 ± 0.6 kg/m3,CO [methanol]
6,821.6 ± 1.5 kg/m3,CCCCCCCCO [octan-1-ol]
7,811.4 ± 1.5 kg/m3,CCCCCO [pentan-1-ol]
8,799.7 ± 1.5 kg/m3,CCCO [propan-1-ol]

# Same assay, conditions: Crystal; DSC
row,Triple point temperature,SMILES
1,376.35 ± 0.93 K,"CNC(=O)NC [1,3-dimethylurea]"
